According to patent publication US20150031714A1, “METHODS AND COMPOSITIONS FOR PREVENTION OF ALLERGIC REACTION” (Baylor College of Medicine, priority 2013, published 2015):

Legend:
[1] = test system: breast cancer cell lines; experiment: Apoptosis of breast cancer cell lines with constitutive Stat3 activation; type: cell-based
[2] = target: T1, Stat3-DNA (hSIE) complexes (Homo sapiens, UniProt P40763); experiment: Electrophoretic mobility shift assay (EMSA), Stat3:hSIE DNA binding; type: biochemical; settings: 300 μM, extracts of IL-6-stimulated HepG2 cells
T1 construct: high salt extracts were prepared from HepG2 cells incubated without or with IL-6 (30 ng/ml) for 30 minutes; endogenous in cells; host or cells: HepG2 (IL-6-stimulated), whole-cell high-salt extract
Description: Electrophoretic mobility shift assays were performed using whole-cell extracts prepared from HepG2 cells without and with stimulation with IL-6 (30 ng/ml) for 30 min. Protein (20 μg) was incubated with radiolabeled duplex oligonucleotide (hSIE) and DMSO without or with the indicated compounds (300 uM) for 60 minutes at 37° C. then separated by PAGE. The gel was dried and autoradiographed; the portion of the gel corresponding to the Stat3-bound hSIE band is shown. Data shown are representative of 2 studies.
Electrophoretic Mobility Shift Assay (EMSA): EMSA was performed using the hSIE radiolabeled duplex oligonucleotide as a probe as described (Tweardy et al., 1995). Briefly, high salt extracts were prepared from HepG2 cells incubated without or with IL-6 (30 ng/ml) for 30 minutes. Protein concentration was determined by Bradford Assay and 20 ug of extract was incubated with compound (300 uM) for 60 minutes at 37 °C. […] Gels were dried and autoradiographed.
Once in the nucleus, Stat3 dimers bind to specific DNA elements to activate and, in some instances, repress gene transcription. […] Compounds that bind to the phosphopeptide-binding site of Stat3 might be expected to do the same. […]

[3] = test system: Stat3 (pY705); experiment: Immunoblot assay of IL-6-mediated phosphorylation of Stat3 in HepG2 cells; type: cell-based; settings: Homo sapiens; Table 4; HepG2, compound 60 min, IL-6 30 ng/ml 30 min; read-out: pStat3 IC50
Description: Cells were then stimulated with IL-6 (30 ng/ml) for 30 min. Protein extracts of cells were separated by SDS-PAGE, blotted and developed serially with antibodies to pStat3, total Stat3 and β-actin. Blots were stripped between each antibody probing. The bands intensities of immunoblot were quantified by densitometry. The value of each pStat3 band's intensity was divided by each corresponding value of total Stat3 band intensity and the results normalized to the DMSO-treated control value and plotted as a function of the log compound concentration. The best-fit curves were generated based on 4 Parameter Logistic Model/Dose Response One Site/XLfit 4.2, IDBS. Each panel is representative of 3 or more experiments.
Immunoblot assay. The human hepatocellular carcinoma cell line (HepG2) was grown in 6-well plates under standard conditions. Cells were pretreated with compounds (0, 1, 3, 10, 30, 100 and 300 uM) for 1 hour then stimulated under optimal conditions with either interferon gamma (IFN-γ; 30 ng/ml for 30 min) to activate Stat1 or interleukin-6 (IL-6; 30 ng/ml for 30 min) to activate Stat3 (30-31). Cultures were then harvested and proteins extracted using high-salt buffer, as described (Shao et al., 2006). […]
EXP IIC. […] Band intensities are quantified by densitometry. […]

T1 sequence (P40763 2-770 limits assumed, one chain of several): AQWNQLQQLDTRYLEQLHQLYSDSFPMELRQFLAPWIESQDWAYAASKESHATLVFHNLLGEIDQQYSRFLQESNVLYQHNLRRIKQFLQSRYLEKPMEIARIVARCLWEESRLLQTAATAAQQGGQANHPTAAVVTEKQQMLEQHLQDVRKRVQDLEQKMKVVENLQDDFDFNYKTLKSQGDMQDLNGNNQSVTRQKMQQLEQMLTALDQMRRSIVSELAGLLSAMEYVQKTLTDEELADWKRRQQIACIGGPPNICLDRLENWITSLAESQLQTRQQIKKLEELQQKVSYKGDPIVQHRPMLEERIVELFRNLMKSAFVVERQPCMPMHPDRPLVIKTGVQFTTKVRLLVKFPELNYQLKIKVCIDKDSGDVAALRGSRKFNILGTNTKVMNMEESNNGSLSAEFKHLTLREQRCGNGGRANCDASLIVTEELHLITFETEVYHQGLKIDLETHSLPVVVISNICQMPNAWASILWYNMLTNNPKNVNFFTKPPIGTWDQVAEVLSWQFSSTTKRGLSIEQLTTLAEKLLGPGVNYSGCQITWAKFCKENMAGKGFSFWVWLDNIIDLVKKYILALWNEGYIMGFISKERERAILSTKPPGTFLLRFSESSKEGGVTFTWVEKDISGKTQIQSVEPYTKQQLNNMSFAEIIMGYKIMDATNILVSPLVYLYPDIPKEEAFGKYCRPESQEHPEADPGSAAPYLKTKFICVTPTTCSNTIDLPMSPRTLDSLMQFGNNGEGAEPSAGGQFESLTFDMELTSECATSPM

IC50 [3] [µM]	SMILES	induction of apoptosis of breast cancer cell lines [1]	Stat3:hSIE band intensity (amount of hSIE shifted) [2]
91	O=C(O)c1ccc(C=CC(=O)c2ccc3c(c2)OCCO3)cc1 [Cpd3, 4-[3-(2,3-dihydro-1,4-benzodioxin-6-yl)-3-oxo-1-propen-1-yl]benzoic acid]	induced apoptosis preferentially	reduced the amount of hSIE shifted by half or greater
144	CCOc1cc(C=C2C(=O)c3ccccc3C2=O)cc(Cl)c1OCc1cccc(C(=O)O)c1 [Cpd3-2, 3-({2-chloro-4-[(1,3-dioxo-1,3-dihydro-2H-inden-2-ylidene)methyl]-6-ethoxyphenoxy}methyl)benzoic acid]	–	–
